Among the data in US9163008B2, “Pyrimidines as sodium channel blockers” (Purdue Pharma, L.P., priority 2011, dated 2015) are IC50 values, retold here.

Some results are limits rather than exact numbers.

The target of the first assay is human Nav1.7 (Homo sapiens (Human), UniProt Q15858). The assay can be described thus: FLIPR sodium dye assay (CoroNa Green) with KCl and test article pre-incubation. It is filed as cell-based.
Chain of human Nav1.7 (Q15858 other isoform, or with tags, fused parts or gaps): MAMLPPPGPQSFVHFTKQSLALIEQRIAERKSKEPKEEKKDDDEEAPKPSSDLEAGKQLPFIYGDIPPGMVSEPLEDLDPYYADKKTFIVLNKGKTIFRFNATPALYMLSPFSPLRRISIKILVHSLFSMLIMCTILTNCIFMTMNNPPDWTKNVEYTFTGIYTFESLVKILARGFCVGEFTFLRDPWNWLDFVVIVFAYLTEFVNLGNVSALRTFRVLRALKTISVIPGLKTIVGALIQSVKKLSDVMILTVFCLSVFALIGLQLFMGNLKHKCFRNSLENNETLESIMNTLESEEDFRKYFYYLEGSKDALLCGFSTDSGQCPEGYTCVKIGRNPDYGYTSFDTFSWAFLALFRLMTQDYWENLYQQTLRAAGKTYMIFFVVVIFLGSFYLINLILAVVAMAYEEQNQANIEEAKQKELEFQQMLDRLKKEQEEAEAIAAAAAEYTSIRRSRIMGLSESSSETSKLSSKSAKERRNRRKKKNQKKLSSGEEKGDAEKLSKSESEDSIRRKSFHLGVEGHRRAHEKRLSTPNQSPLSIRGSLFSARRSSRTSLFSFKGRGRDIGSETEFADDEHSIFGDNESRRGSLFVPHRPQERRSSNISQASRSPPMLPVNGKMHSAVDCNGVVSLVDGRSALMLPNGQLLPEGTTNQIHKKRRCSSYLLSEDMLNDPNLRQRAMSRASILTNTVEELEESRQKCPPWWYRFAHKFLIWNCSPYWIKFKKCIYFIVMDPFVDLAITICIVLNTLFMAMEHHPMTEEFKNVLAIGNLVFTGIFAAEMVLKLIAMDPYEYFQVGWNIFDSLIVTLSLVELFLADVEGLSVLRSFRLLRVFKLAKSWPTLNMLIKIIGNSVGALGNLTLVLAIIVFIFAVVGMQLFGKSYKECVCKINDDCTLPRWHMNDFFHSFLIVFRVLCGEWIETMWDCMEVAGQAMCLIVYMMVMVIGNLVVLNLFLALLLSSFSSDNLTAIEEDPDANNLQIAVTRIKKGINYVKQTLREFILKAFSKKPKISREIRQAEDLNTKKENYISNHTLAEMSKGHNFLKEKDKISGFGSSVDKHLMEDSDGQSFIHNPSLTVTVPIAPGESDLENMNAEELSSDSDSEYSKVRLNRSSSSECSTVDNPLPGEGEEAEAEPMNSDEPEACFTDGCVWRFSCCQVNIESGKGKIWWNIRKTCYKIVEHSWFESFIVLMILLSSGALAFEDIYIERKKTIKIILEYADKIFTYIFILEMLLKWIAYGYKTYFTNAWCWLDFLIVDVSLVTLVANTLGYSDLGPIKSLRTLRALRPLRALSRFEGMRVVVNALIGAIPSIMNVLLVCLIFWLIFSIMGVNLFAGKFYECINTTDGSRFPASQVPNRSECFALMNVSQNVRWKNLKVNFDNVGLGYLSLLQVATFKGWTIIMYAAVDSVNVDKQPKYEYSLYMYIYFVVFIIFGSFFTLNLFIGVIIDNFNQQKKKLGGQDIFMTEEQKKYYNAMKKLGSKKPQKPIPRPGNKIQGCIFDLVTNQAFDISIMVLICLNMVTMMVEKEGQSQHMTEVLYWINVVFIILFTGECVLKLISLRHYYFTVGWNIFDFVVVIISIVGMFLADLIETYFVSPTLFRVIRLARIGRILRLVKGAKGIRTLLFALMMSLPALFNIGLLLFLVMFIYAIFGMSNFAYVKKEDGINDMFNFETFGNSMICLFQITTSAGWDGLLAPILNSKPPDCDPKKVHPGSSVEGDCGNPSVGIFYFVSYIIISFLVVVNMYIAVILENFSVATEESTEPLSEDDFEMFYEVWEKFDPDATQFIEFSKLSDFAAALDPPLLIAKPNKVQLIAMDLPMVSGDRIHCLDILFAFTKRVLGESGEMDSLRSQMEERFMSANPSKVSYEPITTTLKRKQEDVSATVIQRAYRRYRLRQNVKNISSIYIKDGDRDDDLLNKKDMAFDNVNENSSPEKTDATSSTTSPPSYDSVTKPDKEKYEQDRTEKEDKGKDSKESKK
Details: not given
The IC50 is the midpoint of a concentration-inhibition curve. `NC(=O)c1cc(N2CCCC(C(N)=O)C2)nc(-c2ccc(Oc3ccc(F)cc3)cc2)n1` (stereo not shown) [Cpd No. 24, 6-(3-carbamoylpiperidin-1-yl)-2-(4-(4-fluorophenoxy)phenyl)pyrimidine-4-carboxamide] showed an IC50 of 10000 to 20000 nM.

The assay is the same for the next values; noted with them: read-out: Nav1.7 Activity FLIPR assay IC50.
Take `C[C@H](Nc1cc(C(N)=O)nc(Oc2ccc(C(F)(F)F)cc2-c2ccnnc2)n1)C(N)=O` [Cpd No. 72, (S)-6-((1-amino-1-oxopropan-2-yl)amino)-2-(2-(pyridazin-4-yl)-4-(trifluoromethyl)phenoxy)pyrimidine-4-carboxamide]: the IC50 is 1420 nM.

Turning to `COC(=O)[C@H](C)Nc1cc(C(=O)O)nc(-c2ccc(Oc3ccc(F)cc3)cc2)n1` [Cpd No. 33, (S)-2-(4-(4-fluorophenoxy)phenyl)-6-((1-methoxy-1-oxopropan-2-yl)amino)pyrimidine-4-carboxylic acid], the IC50 was 970 nM.

On to `NC(=O)c1cc(N2CCNCC2CO)nc(-c2ccc(Oc3ccc(F)cc3)cc2)n1` (stereo not shown) [Cpd No. 48, 2-(4-(4-fluorophenoxy)phenyl)-6-(2-(hydroxymethyl)piperazin-1-yl)pyrimidine-4-carboxamide], for which the IC50 was 170 nM.

For the compound `C[C@H](Nc1cc(C(N)=O)nc(-c2ccc(O)cc2)n1)C(N)=O` [Cpd No. 65, 6-((S)-1-Carbamoyl-ethylamino)-2-(4-hydroxy-phenyl)-pyrimidine-4-carboxylic acid amide], the IC50 is > 20000 nM.

Turning to `NC(=O)c1cc(N2CCC[C@H]2C(N)=O)nc(-c2ccc(Oc3ccc(C(F)(F)F)cc3)cc2)n1` [Cpd No. 91, (S)-6-(2-carbamoylpyrrolidin-1-yl)-2-(4-(4-(trifluoromethyl)phenoxy)phenyl)pyrimidine-4-carboxamide], the IC50 was 200 nM.

With `NC(=O)c1cc(NC2(C(N)=O)CC2)nc(-c2ccc(Oc3ccc(F)cc3)cc2)n1` [Cpd No. 8, 6-((1-carbamoylcyclopropyl)amino)-2-(4-(4-fluorophenoxy)phenyl)pyrimidine-4-carboxamide], the IC50 amounted to 420 nM.

In the case of `C[C@@H](C(N)=O)N(C)c1cc(C(N)=O)nc(-c2ccc(Oc3ccc(F)cc3)cc2)n1` [Cpd No. 20, (S)-6-((1-amino-1-oxopropan-2-yl)(methyl)amino)-2-(4-(4-fluorophenoxy)phenyl)pyrimidine-4-carboxamide], the IC50 turned out to be 220 nM.

Take `CC(CC(N)=O)Nc1cc(C(N)=O)nc(-c2ccc(Oc3ccc(F)cc3)cc2)n1` (stereo not shown) [Cpd No. 23, 6-((4-amino-4-oxobutan-2-yl)amino)-2-(4-(4-fluorophenoxy)phenyl)pyrimidine-4-carboxamide]: the IC50 was found to be 300 nM.

In the case of `C[C@H](Nc1cc(C(N)=O)nc(N2CCC3(CC2)Cc2ccccc2C3)n1)C(N)=O` [compound 73, (S)-6-((1-amino-1-oxopropan-2-yl)amino)-2-(1,3-dihydrospiro[indene-2,4′-piperidin]-1′-yl)pyrimidine-4-carboxamide], the IC50 was 1800 nM.

`NC(=O)c1cc(N2CCC[C@H]2C(N)=O)nc(-c2ccc(Oc3ccc(Cl)cc3F)cc2)n1` [compound 78, (S)-6-(2-carbamoylpyrrolidin-1-yl)-2-(4-(4-chloro-2-fluorophenoxy)phenyl)pyrimidine-4-carboxamide]: the IC50 is 120 nM.

For the compound `CCOC(=O)[C@@H]1Cc2ccccc2N1c1cc(C(N)=O)nc(-c2ccc(Oc3ccc(F)cc3)cc2)n1` [Cpd No. 16, (S)-ethyl 1-(6-carbamoyl-2-(4-(4-fluorophenoxy)phenyl)pyrimidin-4-yl) indoline-2-carboxylate], the half-inhibitory concentration (IC50) is > 20000 nM.

As for `CC(Nc1cc(C(N)=O)nc(-c2ccc(Oc3ccc(F)cc3)cc2)n1)C(N)=O` (stereo not shown) [Cpd No. 22, 6-((1-amino-1-oxopropan-2-yl)amino)-2-(4-(4-fluorophenoxy)phenyl)pyrimidine-4-carboxamide], the IC50 stood at 550 nM.

The same assay, now with this note: recombinant human Nav1.7 in HEK293; veratridine and scorpion venom agonists; read-out: Nav1.7 Activity FLIPR assay IC50.
Turning to `C[C@H](Nc1cc(C(N)=O)nc(N2CCN(C(c3ccc(F)cc3)c3ccc(F)cc3)CC2)n1)C(N)=O` [Cpd No. 71, (S)-6-((1-amino-1-oxopropan-2-yl)amino)-2-(4-(bis(4-fluorophenyl)methyl)piperazin-1-yl)pyrimidine-4-carboxamide], the IC50 is > 20000 nM.

Take `O=C(O)c1cc(N2CCC[C@H]2C(=O)O)nc(-c2ccc(Oc3ccc(F)cc3)cc2)n1` [Cpd No. 29, (S)-6-(2-carboxypyrrolidin-1-yl)-2-(4-(4-fluorophenoxy)phenyl)pyrimidine-4-carboxylic acid]: the IC50 was > 20000 nM.

Take `C[C@H](Nc1cc(C(N)=O)nc(-c2ccc(Oc3ccc(C#N)cc3)cc2)n1)C(N)=O` [Cpd No. 66, 6-((S)-1-Carbamoyl-ethylamino)-2-[4-(4-cyano-phenoxy)-phenyl]-pyrimidine-4-carboxylic acid amide]: the IC50 was found to be 410 nM.

With `C[C@H](Nc1cc(C(N)=O)nc(N2CCC(Oc3ccc(C#N)cc3)CC2)n1)C(N)=O` [compound 100, (S)-6-((1-amino-1-oxopropan-2-yl)amino)-2-(4-(4-cyanophenoxy)piperidin-1-yl)pyrimidine-4-carboxamide], the IC50 came out at 4570 nM.

Consider `C[C@H](Nc1cc(C(N)=O)nc(-c2ccc(Oc3ccc(F)cc3)cc2)n1)C(=O)O` [Cpd No. 28, (S)-2-((6-carbamoyl-2-(4-(4-fluorophenoxy)phenyl)pyrimidin-4-yl)amino)propanoic acid], for which the IC50 lay within 10000 to 20000 nM.

`C[C@H](Nc1cc(C(N)=O)nc(Oc2ccc(Cl)cc2-c2ccnc(N)c2)n1)C(N)=O` [Cpd No. 67, (S)-6-((1-amino-1-oxopropan-2-yl)amino)-2-(2-(2-aminopyridin-4-yl)-4-chlorophenoxy)pyrimidine-4-carboxamide]: the IC50 was > 20000 nM.

On to `NC(=O)c1cc(N2c3ccccc3C[C@H]2C(N)=O)nc(-c2ccc(Oc3ccc(F)cc3)cc2)n1` [Example 36], for which the IC50 is > 20000 nM.

Turning to `C[C@H](Nc1cc(C(N)=O)nc(-c2ccnc(Oc3ccc(F)cc3)c2)n1)C(N)=O` [Cpd No. 68, (S)-6-((1-amino-1-oxopropan-2-yl)amino)-2-(2-(4-fluorophenoxy)pyridin-4-yl)pyrimidine-4-carboxamide], the IC50 was > 20000 nM.

Take `NC(=O)c1cc(N2c3ccccc3C[C@H]2C(=O)O)nc(-c2ccc(Oc3ccc(F)cc3)cc2)n1` [Cpd No. 31, (S)-1-(6-carbamoyl-2-(4-(4-fluorophenoxy)phenyl)pyrimidin-4-yl)indoline-2-carboxylic acid]: the IC50 is > 20000 nM.

As to `NC(=O)c1cc(N2CCC[C@H]2C(=O)O)nc(-c2ccc(Oc3ccc(F)cc3)cc2)n1` [Cpd No. 30, (S)-1-(6-carbamoyl-2-(4-(4-fluorophenoxy)phenyl)pyrimidin-4-yl)pyrrolidine-2-carboxylic acid], the IC50 is > 20000 nM.

With `NC(=O)c1cc(NC[C@H](O)CO)nc(-c2ccc(Oc3ccc(F)cc3)cc2)n1` [Cpd No. 46, (S)-6-((2,3-dihydroxypropyl)amino)-2-(4-(4-fluorophenoxy)phenyl)pyrimidine-4-carboxamide], the half-maximal inhibitory concentration (IC50) was > 20000 nM.

As to `C[C@H](Nc1cc(C(N)=O)nc(-c2ccc(Oc3ccc(C#N)cn3)cc2)n1)C(N)=O` [Cpd No. 37, (S)-6-((1-amino-1-oxopropan-2-yl)amino)-2-(4-((5-cyanopyridin-2-yl)oxy)phenyl)pyrimidine-4-carboxamide], the IC50 lay within 10000 to 20000 nM.

`NC(=O)c1cc(NC[C@H](O)C(N)=O)nc(-c2ccc(Oc3ccc(F)cc3)cc2)n1` [Cpd No. 50, (S)-6-((3-amino-2-hydroxy-3-oxopropyl)amino)-2-(4-(4-fluorophenoxy)phenyl)pyrimidine-4-carboxamide]: the IC50 was > 20000 nM.

Regarding `NC(=O)CCNc1cc(C(N)=O)nc(-c2ccc(Oc3ccc(F)cc3)cc2)n1` [Cpd No. 19, 6-((3-amino-3-oxopropyl)amino)-2-(4-(4-fluorophenoxy)phenyl)pyrimidine-4-carboxamide], the IC50 is > 20000 nM.

On to `NC(=O)c1cc(NC[C@H](O)C(=O)O)nc(-c2ccc(Oc3ccc(F)cc3)cc2)n1` [Cpd No. 51, (S)-3-((6-carbamoyl-2-(4-(4-fluorophenoxy)phenyl)pyrimidin-4-yl)amino)-2-hydroxypropanoic acid], for which the IC50 was > 20000 nM.
